The record followed here is ChEMBL document CHEMBL1153468, “Discovery of a novel protein kinase B inhibitor by structure-based virtual screening” (Bioorg Med Chem Lett, 2009).

In general, IC50 refers to the midpoint of a concentration-inhibition curve. Read a high IC50 as a need for much substance. By EC50 is commonly meant the concentration that produces a half-maximal response. A high value points to weaker potency.

For test [1], the target named is T1, RAC-beta serine/threonine-protein kinase (Homo sapiens, UniProt P31751). In words: Inhibition of AKT2 at 50 uM by FRET based assay.
T1 sequence (P31751 whole entry): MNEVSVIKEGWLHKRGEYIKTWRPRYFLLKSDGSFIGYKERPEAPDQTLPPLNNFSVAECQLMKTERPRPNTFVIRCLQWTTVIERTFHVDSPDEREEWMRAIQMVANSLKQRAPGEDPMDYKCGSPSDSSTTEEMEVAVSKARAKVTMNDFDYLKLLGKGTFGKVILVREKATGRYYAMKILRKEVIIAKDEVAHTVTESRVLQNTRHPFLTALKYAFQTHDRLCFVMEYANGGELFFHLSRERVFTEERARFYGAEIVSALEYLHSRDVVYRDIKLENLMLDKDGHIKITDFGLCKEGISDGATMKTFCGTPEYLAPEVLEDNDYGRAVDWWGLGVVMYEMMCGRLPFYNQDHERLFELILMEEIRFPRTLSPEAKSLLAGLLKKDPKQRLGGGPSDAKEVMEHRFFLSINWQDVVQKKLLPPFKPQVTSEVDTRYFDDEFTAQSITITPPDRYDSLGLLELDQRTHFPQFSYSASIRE
For test [2], the target named is T1, RAC-beta serine/threonine-protein kinase. In words: Inhibition of AKT2 at 25 uM by FRET based assay.
Test [3] addresses RAC-gamma serine/threonine-protein kinase (Homo sapiens, UniProt Q9Y243). Put plainly: Inhibition of AKT3 by FRET based assay.
The test system of the next test is MDA-MB-453. In words: Cytotoxicity against human MDA-MB-453 cells with PIK3CA mutation and HER2 amplification after 12 hrs by MTT assay. It is filed as functional, cell-based. The note with it: MDA-MB-453, 12 h.
The target of test [4] is T1, RAC-beta serine/threonine-protein kinase. Put plainly: Inhibition of AKT2 by FRET based assay.
A further test relates to MDA-MB-468. Put plainly: Cytotoxicity against human MDA-MB-468 cells with PTEN mutation and EGFR amplification after 12 hrs by MTT assay. It is filed as functional, cell-based. As to conditions: MDA-MB-468, 12 h. For orientation: Tetrazolium assays rely on reduction of a dye to a coloured formazan, in cell work by metabolically active cells.
Test [5] concerns the target RAC-alpha serine/threonine-protein kinase (Homo sapiens, UniProt P31749). In words: Inhibition of AKT1 by FRET based assay.

Calls of active or inactive are those of the source. No cut-off for these calls is given here.

Chain of RAC-gamma serine/threonine-protein kinase (Q9Y243 whole entry): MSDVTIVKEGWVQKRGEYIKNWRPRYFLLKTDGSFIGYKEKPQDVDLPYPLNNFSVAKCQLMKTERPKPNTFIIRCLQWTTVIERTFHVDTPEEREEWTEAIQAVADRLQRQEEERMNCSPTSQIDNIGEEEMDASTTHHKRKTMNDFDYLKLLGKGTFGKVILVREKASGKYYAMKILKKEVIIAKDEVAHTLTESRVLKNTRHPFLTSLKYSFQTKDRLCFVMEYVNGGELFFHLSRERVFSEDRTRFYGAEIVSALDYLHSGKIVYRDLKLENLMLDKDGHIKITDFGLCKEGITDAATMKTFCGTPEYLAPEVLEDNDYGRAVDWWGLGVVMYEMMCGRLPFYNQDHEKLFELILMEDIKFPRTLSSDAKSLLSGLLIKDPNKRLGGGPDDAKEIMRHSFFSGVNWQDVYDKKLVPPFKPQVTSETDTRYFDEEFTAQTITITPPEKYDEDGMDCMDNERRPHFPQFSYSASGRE
Chain of RAC-alpha serine/threonine-protein kinase (P31749 whole entry): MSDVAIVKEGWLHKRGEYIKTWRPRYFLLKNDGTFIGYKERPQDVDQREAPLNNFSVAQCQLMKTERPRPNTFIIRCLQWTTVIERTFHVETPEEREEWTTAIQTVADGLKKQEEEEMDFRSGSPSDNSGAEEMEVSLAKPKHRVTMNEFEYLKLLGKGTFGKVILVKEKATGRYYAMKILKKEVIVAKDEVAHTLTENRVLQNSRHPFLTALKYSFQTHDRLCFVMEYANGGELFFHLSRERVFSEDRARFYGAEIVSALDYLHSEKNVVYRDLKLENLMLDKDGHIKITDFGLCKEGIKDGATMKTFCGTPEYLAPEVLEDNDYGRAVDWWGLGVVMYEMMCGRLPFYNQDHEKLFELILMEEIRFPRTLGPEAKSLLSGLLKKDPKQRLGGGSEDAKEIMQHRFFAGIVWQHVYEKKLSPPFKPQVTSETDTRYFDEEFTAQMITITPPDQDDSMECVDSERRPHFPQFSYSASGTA

As for `O=S(=O)(NCCNC/C=C/c1ccc(Br)cc1)c1cccc2cnccc12`, the outcome in test [1] and in test [2] was inactive.
As for `Clc1ccc(C2(c3ccc(-c4cn[nH]c4)cc3)CCNCC2)cc1`, the outcome in test [1] and in test [2] was inactive.
On to `O=C1COc2ccc(-c3cc(-c4ccccc4)cc(-c4ccc5oc(=O)[nH]c5c4)n3)cc2N1`, for which the IC50 in test [3] is 4 µM; in test [4], 1.5 µM; in test [5], 2.6 µM. Moreover, the values for the EC50 in the test on MDA-MB-453 and in the test with MDA-MB-468 were 10 µM and 3.8 µM, respectively.
